Laboratory results published in ChEMBL document CHEMBL1201862, “PubChem BioAssay data set” (2004).
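96-well plates; 48 h exposure; 5 concentrations. Endpoints by linear interpolation between flanking doses. Not reached: highest tested concentration assigned. Abbreviation: GI50, concentration required for 50% inhibition of growth.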 The source made the active and inactive calls. No stated cut-off is given here; in the data, active = GI50 up to about 1.1 µM and inactive = higher.

Tests used:
Assay in all cases: NCI-60 cell line screen, 48 h
UACC-257 = test system: UACC-257
CAKI-1 = test system: CAKI-1
SK-OV-3 = test system: SK-OV-3
DLD-1 = test system: DLD-1
DMS-114 = test system: DMS-114
786-0 = test system: 786-0
KM-20L2 = test system: KM-20L2
SK-MEL-2 = test system: SK-MEL-2
HL-60 = test system: HL-60
K562 = test system: K562
NCI-H460 = test system: NCI-H460
SK-MEL-5 = test system: SK-MEL-5
SN12C = test system: SN12C
HCT-116 = test system: HCT-116
LOX IMVI = test system: LOX IMVI
M19-MEL = test system: M19-MEL
HOP-92 = test system: HOP-92
NCI-H23 = test system: NCI-H23
CCRF-CEM = test system: CCRF-CEM
SF-268 = test system: SF-268
SF-539 = test system: SF-539
HOP-18 = test system: HOP-18
UACC-62 = test system: UACC-62
Malme-3M = test system: Malme-3M
ACHN = test system: ACHN
UO-31 = test system: UO-31
HOP-62 = test system: HOP-62
SNB-19 = test system: SNB-19
HCT-15 = test system: HCT-15
SNB-78 = test system: SNB-78
SK-MEL-28 = test system: SK-MEL-28
SW-620 = test system: SW-620
U-251 = test system: U-251
SR = test system: SR
OVCAR-3 = test system: OVCAR-3
OVCAR-8 = test system: OVCAR-8
LXFL 529 = test system: LXFL 529
TK-10 = test system: TK-10
MOLT-4 = test system: MOLT-4
M14 = test system: M14
SF-295 = test system: SF-295
EKVX = test system: EKVX
NCI-H522 = test system: NCI-H522
OVCAR-5 = test system: OVCAR-5
COLO 205 = test system: COLO 205
A498 = test system: A498
OVCAR-4 = test system: OVCAR-4
DMS-273 = test system: DMS-273
A549 = test system: A549
HT-29 = test system: HT-29
SNB-75 = test system: SNB-75
HCC 2998 = test system: HCC 2998
RXF 393 = test system: RXF 393
NCI-H226 = test system: NCI-H226
IGROV-1 = test system: IGROV-1
KM12 = test system: KM12

In the case of `CC1(C)OC2OC(/C=C/[N+](=O)[O-])C3OC(C)(C)OC3C2O1` (stereo unspecified), the GI50 (UACC-257) is reported as 7.52 µM (inactive), the GI50 (CAKI-1) is reported as 4.67 µM (inactive) and the GI50 (SK-OV-3) is reported as 20.6 µM (inactive). The GI50 (DLD-1) was 1.61 µM (inactive), the GI50 (DMS-114) was 18.6 µM (inactive) and the GI50 (786-0) was 13.8 µM (inactive). For the same compound, the GI50 (KM-20L2) was 19.5 µM (inactive), the GI50 (SK-MEL-2) was 18.2 µM (inactive) and the GI50 (HL-60) was 2.94 µM (inactive). For the same compound, the GI50 (K562) was 6.84 µM (inactive), the GI50 (NCI-H460) was 15.4 µM (inactive) and the GI50 (SK-MEL-5) was 16.6 µM (inactive). For the same compound, the GI50 (SN12C) was 15.6 µM (inactive), the GI50 (HCT-116) was 9.06 µM (inactive) and the GI50 (LOX IMVI) was 7.5 µM (inactive). The GI50 (M19-MEL) was 14.2 µM (inactive), the GI50 (HOP-92) was 8.43 µM (inactive) and the GI50 (NCI-H23) was 18.7 µM (inactive). The GI50 (CCRF-CEM) was 2.94 µM (inactive), the GI50 (SF-268) was 19.8 µM (inactive) and the GI50 (SF-539) was 13.6 µM (inactive). The GI50 (HOP-18) was 23.1 µM (inactive), the GI50 (UACC-62) was 15.1 µM (inactive) and the GI50 (Malme-3M) was 5.35 µM (inactive). The GI50 (ACHN) was 15.4 µM (inactive), the GI50 (UO-31) was 20.4 µM (inactive) and the GI50 (HOP-62) was 20.7 µM (inactive). The GI50 (SNB-19) was 18.5 µM (inactive), the GI50 (HCT-15) was 2.25 µM and the GI50 (SNB-78) was 14.2 µM (inactive). The GI50 (SK-MEL-28) was 18.2 µM (inactive), the GI50 (SW-620) was 3.27 µM (inactive) and the GI50 (U-251) was 17.3 µM (inactive). For the same compound, the GI50 (SR) was 6.7 µM (inactive), the GI50 (OVCAR-3) was 16.4 µM (inactive) and the GI50 (OVCAR-8) was 8.47 µM (inactive). The GI50 (LXFL 529) was 2.76 µM (inactive), the GI50 (TK-10) was 5.26 µM (inactive) and the GI50 (MOLT-4) was 3.01 µM (inactive). The GI50 (M14) was 12.3 µM (inactive), the GI50 (SF-295) was 19.5 µM (inactive) and the GI50 (EKVX) was 20.1 µM (inactive). For the same compound, the GI50 (NCI-H522) was 1.77 µM (inactive), the GI50 (OVCAR-5) was 23.2 µM (inactive) and the GI50 (COLO 205) was 4.6 µM (inactive). For the same compound, the GI50 (A498) was 20.5 µM (inactive), the GI50 (OVCAR-4) was 16.3 µM (inactive) and the GI50 (DMS-273) was 17.3 µM (inactive). The GI50 (A549) was 20.3 µM (inactive), the GI50 (HT-29) was 17.2 µM (inactive) and the GI50 (SNB-75) was 20.2 µM (inactive). For the same compound, the GI50 (HCC 2998) was 16.8 µM (inactive), the GI50 (RXF 393) was 1.99 µM (inactive) and the GI50 (NCI-H226) was 20.5 µM (inactive). The GI50 (IGROV-1) was 34.9 µM (inactive) and the GI50 (KM12) was 17.2 µM (inactive).
